Measurements: US11723589B2 (The General Hospital Corporation, priority 2010, dated 2023)
Values joined by “and” are separate entries in the source; they are usually repeats but may differ in a detail not shown here. Equal values may be shown once. “Also recorded” adds a separate entry of the source.

Columns and labels:
Male Sprague-Dawley rats [1] = test: Time to emergence after a standardized isoflurane general anesthetic; type: in vivo, rat
Description: Animal Care and Use. Animal studies were approved by the Subcommittee on Research Animal Care, Massachusetts General Hospital, Boston, Mass. Male Sprague-Dawley rats (Charles River Laboratories, Wilmington, Mass.) weighing 351-565 grams were used. […] Separate groups of animals were used for the electroencephalogram (4 rats), plethysmography (4 rats), and blood gas studies (6 rats). In animals that underwent multiple experiments, each animal was provided with at least 3 days of rest between experiments. Animals were kept on a standard day-night cycle (lights on at 7 AM, and off at 7 PM), and all experiments were performed during the day.
Preparation and Delivery of Drugs. […] Droperidol was diluted in normal saline to a final volume of 0.5 ml prior to administration. […]

Male Sprague-Dawley rats [2] = test: Return of righting during continuous isoflurane general anesthesia; type: in vivo, rat
Description: Anesthetizing Protocol. Rats were anesthetized in an induction chamber with 2-3% isoflurane in oxygen prior to placement of a lateral tail vein intravenous catheter (24 gauge, 19 mm). A rectal temperature probe was inserted and the animal was placed in a cylindrical acrylic anesthetizing chamber. The chamber was custom-built and equipped with ports for anesthetic gas delivery, sampling, and scavenging, as well as intravenous drug administration. A heating pad was placed under the chamber to keep the animal warm, and the body temperature was kept between 36.5° C. and 37.4° C.
The rat was positioned supine in the anesthetizing chamber and the inhaled concentration of isoflurane was initially fixed at 2.0% for 20 minutes, then reduced to 0.8% over 15-20 minutes, and then maintained at 0.8% for 40 minutes. If the rat made any purposeful movement, the isoflurane concentration was increased by 0.1% and maintained for another 40 minutes. This process was repeated until the final dose of isoflurane sufficient to maintain loss of righting reflex was established, and this dose was administered throughout the remainder of the experiment. This protocol was based on previously published methods described by Alkire et al.^4,11 After the final 40-minute equilibration period, normal saline (2 ml) was administered and the rectal temperature probe was removed. Five minutes later, methylphenidate was administered.
Prism 4.03 (Graphpad Software, San Diego, Calif.) and Matlab (Mathworks, Natick, Mass.) were used for statistical analysis and where possible, results are reported in terms of 95% confidence intervals based on z-tests, t-tests or Mann-Whitney tests. […] For this computation the inventors assumed a binomial model as the sampling density or likelihood function for the propensity of animals in a given group to have return of the righting response. The inventors took as the prior density for each group the uniform density on the interval (0, 1) because it is uninformative. Because of the conjugacy between the prior and the likelihood the posterior density for each group is a beta density.^17 The posterior densities for the differences in the proportion of animals that had return of righting were then computed by using standard Matlab simulation procedures. Instead of p-values for the Bayesian analyses the inventors computed the posterior probability that the propensity to right was greater in on group compared to the other.

rats [3] = test: D-MPH versus L-MPH reversal of isoflurane anesthesia, loss of righting reflex (LORR); type: in vivo, rat; conditions: intravenous, rat animal model
Description: Pure D-MPH (Focalin) is currently available in oral form for Attention Deficit Hyperactivity Disorder (ADHD), but it is not available for intravenous use.

Male Sprague-Dawley rats [4] = test: Electroencephalogram recording and spectral analysis during continuous isoflurane; type: in vivo, rat; conditions: isoflurane 1.0%
Procedure: Electroencephalogram electrode placement, recording, and spectral analysis. Extradural electroencephalogram electrodes were surgically implanted at least 7 days prior to recording. General anesthesia was induced with xylazine (5-10 mg/kg IP) and ketamine (50-100 mg/kg IP), and supplemented with isoflurane (1-2%). A microdrill was used to make four holes at the following stereotactic coordinates: A0L0, A6L3, A6L-3, and A10L2 relative to the lambda.^12 Polytetrafluoroethylene coated, 200 μm diameter stainless steel electrode wires (A-M Systems, Sequim, Wash.) were inserted and secured with small stainless steel screws, and permanently fixed with dental acrylic cement. Carprofen (5 mg/kg SC) was administered for analgesia on the day of surgery, as well as on post-operative days 1, and 2. The potential difference between electrodes A0L0 and A6L3, or between electrodes A0L0 and A6L-3 (whichever gave less motion artifact), was referenced to A10L2 and recorded using a QP511 Quad AC Amplifier System (Grass Instruments, West Warwick, R.I.) and a USB-6009 14-bit data acquisition board (National Instruments, Austin, Tex.). Data was filtered between 0.3-100 Hz. No line filter was used. The sampling rate was 512 Hz. After baseline recordings were taken for 10 minutes while awake, rats were anesthetized with isoflurane and placed in the anesthetizing chamber. […] Therefore the inventors performed the electroencephalogram experiments in the prone position with the isoflurane dose fixed at 1.0%. These modifications allowed us to minimize electroencephalogram motion artifacts without restraining the animals. After a minimum isoflurane exposure of 40 minutes, normal saline was administered and the temperature probe was removed. Five minutes later, methylphenidate was administered. Spectral analysis was performed using Matlab 7.11 (Mathworks, Natick, Mass.) and the Chronux software (Cold Spring Harbor, N.Y.). 13 Spectrograms were calculated using sliding windows of 2 sec duration stepped through 0.05 sec. For each window, multitaper spectrum estimation was performed using 5 tapers. […]

Male Sprague-Dawley rats [5] = test: Hemodynamic recordings (mean arterial blood pressure, heart rate) during isoflurane general anesthesia; type: in vivo, rat; conditions: individual animals, isoflurane 1.5%
Procedure: Arterial Blood Gas and Hemodynamic Recordings. Rats with femoral artery catheters (Charles River Laboratories, Wilmington, Mass.) were placed in the anesthetizing chamber after lateral tail vein IV catheter placement. The isoflurane dose was kept constant at 1.5%. Mean arterial blood pressure and heart rate were measured using a pressure transducer (TruWave, Edwards Life Sciences, Irvine, Calif.) interfaced with a custom-built amplifier (AD620 operational amplifier, Jameco Electronics, Belmont, Calif.). […] Samples were promptly analyzed using CG4+ cartridges in a Vetscan iStat 1 (Abaxis, Union City, Calif.) blood gas analyzer.

rats [6] = test: Time to emergence after a single dose of propofol; type: in vivo, rat; conditions: propofol 8 mg/kg IV, MPH 5 mg/kg IV 45 sec later; mean±SE; n=6
Procedure: For the first experiment, a lateral tail vein IV catheter was placed in rats under isoflurane anesthesia. […] Time to emergence was defined as the time until restoration of righting occurred. Statistical analysis was performed using the Mann-Whitney test.

[7] = target: norepinephrine transporter (Homo sapiens, UniProt P23975); conditions: read-out: Ki, norepinephrine transporter; cited from earlier work
norepinephrine transporter, sequence (P23975 whole entry): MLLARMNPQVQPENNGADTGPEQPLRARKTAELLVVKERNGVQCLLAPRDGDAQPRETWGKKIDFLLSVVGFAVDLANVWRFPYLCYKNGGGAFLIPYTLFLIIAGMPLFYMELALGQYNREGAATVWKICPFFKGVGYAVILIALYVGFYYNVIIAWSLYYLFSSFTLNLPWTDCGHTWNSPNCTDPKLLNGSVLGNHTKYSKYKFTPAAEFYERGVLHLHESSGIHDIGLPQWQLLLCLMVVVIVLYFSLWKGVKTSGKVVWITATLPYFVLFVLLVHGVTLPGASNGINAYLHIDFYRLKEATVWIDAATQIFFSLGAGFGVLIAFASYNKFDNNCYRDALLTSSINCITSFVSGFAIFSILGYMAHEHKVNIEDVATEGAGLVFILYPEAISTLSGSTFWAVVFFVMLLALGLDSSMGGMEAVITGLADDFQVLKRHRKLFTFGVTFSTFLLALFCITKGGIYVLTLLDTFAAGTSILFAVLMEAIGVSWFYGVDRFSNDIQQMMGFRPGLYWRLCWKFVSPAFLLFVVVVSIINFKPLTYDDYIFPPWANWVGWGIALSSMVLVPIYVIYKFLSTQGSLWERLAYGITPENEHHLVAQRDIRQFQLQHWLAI

Male Sprague-Dawley rats [8] = test: Plethysmography during isoflurane general anesthesia; conditions: for Change in mean RR: after vs before methylphenidate 5 mg/kg IV
Description: Plethysmography. Rats were placed in a custom built plethysmography chamber and the isoflurane concentration in the chamber was maintained at 1.5%. […] A differential pressure transducer and demodulator (Models CD15 and MP45-14-871; Validyne Engineering, Northridge, Calif.) were used to convert the chamber pressure to an analog signal. The signal was high pass filtered at 15 sec, acquired at 100 Hz, and analyzed in four second epochs using a USB-6009 data acquisition board (National Instruments, Austin, Tex.) and LabView Software (version 8.5 for Macintosh). Chamber carbon dioxide levels were maintained at or less than 0.5% in the open flow configuration. A heating pad was used to warm the rat from beneath. Chamber air temperature and relative humidity were measured with a thermometer-hygrometer (Fisher Scientific, Pittsburgh, Pa.) and used to estimate tidal volumes during intermittent chamber closure using methods described by Drorbaugh et al.^16

[9] = after vs before methylphenidate 5 mg/kg IV, listed as Methylphenidate
[10] = individual animals pretreated with droperidol (0.5 mg/kg IV), isoflurane 1.5%
[11] = individual animals pretreated with normal saline, isoflurane 1.5%

For COC(=O)[C@H](c1ccccc1)[C@H]1CCCCN1 (racemic) [methylphenidate], the “median time to emergence (termination of isoflurane to return of righting)” value (Male Sprague-Dawley rats [1]; methylphenidate 5 mg/kg IV five minutes before end of 45 min isoflurane 1.5%, n=12) was 91 s, the “median difference in time to emergence versus normal saline” value (Male Sprague-Dawley rats [1]; methylphenidate 5 mg/kg IV, isoflurane 1.5%) was 200 s and the “median time to righting after methylphenidate” value (Male Sprague-Dawley rats [2]; 0.5 mg/kg IV, continuous inhalation of isoflurane) was 348 s. The “median time to righting after methylphenidate” value (Male Sprague-Dawley rats [2]; 5 mg/kg IV, continuous inhalation of isoflurane) was 181 s, the “median difference in time to righting between 0.5 and 5 mg/kg” value (Male Sprague-Dawley rats [2]; continuous inhalation of isoflurane) was 173 s and the “return of righting after droperidol pretreatment” value (Male Sprague-Dawley rats [2]; droperidol 0.5 mg/kg IV five minutes before methylphenidate 5 mg/kg IV, continuous isoflurane, n=6) was “None of these animals had return of righting; also recorded: did not induce return of righting in any of the six animals”. For the same compound, the signs of arousal (Male Sprague-Dawley rats [2]; methylphenidate 0.05 mg/kg IV, continuous isoflurane, six rats) was “no signs of arousal”, the “return of righting (rats)” value (Male Sprague-Dawley rats [2]; methylphenidate 0.5 mg/kg IV, continuous isoflurane) was 11 of 12 and the “return of righting (rats)” value (Male Sprague-Dawley rats [2]; methylphenidate 5 mg/kg IV after normal saline, continuous isoflurane) was 11 of 12. For the same compound, the “time to purposeful movements” value (Male Sprague-Dawley rats [2]; methylphenidate 5 mg/kg, all 12 rats, continuous isoflurane) was no more than 30 s, the “reversal of isoflurane-induced general anesthesia” value (rats [3]) was “rapidly reversed isoflurane-induced general anesthesia” and the “EEG changes after methylphenidate with droperidol pretreatment” value (Male Sprague-Dawley rats [4]; droperidol 0.5 mg/kg IV five minutes before methylphenidate 5 mg/kg IV) was “did not induce electroencephalogram changes consistent with arousal; also recorded: failed to induce these electroencephalogram changes; also recorded: the shift in peak power from delta to theta was absent”. The “persistence of the active EEG pattern” value (Male Sprague-Dawley rats [4]; methylphenidate 5 mg/kg IV) was “more than 15 minutes”, the “Change in HR (mean)” value (Male Sprague-Dawley rats [5]; after vs before methylphenidate 5 mg/kg IV) was 6 beats per minute and 15 beats per minute and the “Change in HR (mean)” value (Male Sprague-Dawley rats [5]; [9]) was −14.2 beats per minute and −7.2 beats per minute and +13.9 beats per minute and +0.72 beats per minute and +0.5 beats per minute and −2.6 beats per minute. The “Change in MAP (mean)” value (Male Sprague-Dawley rats [5]; [9]) was “+20.5 mmHg and +8.3 mmHg and +3.2 mmHg and −1.4 mmHg and +0.5 mmHg and +7.4 mmHg”, the “HR after 5 mg/kg IV Methylphenidate (mean)” value (Male Sprague-Dawley rats [5]) was 386.8 beats per minute and 383.3 beats per minute and 365.5 beats per minute and 360.0 beats per minute and 358.6 beats per minute and the “MAP after 5 mg/kg IV Methylphenidate (mean)” value (Male Sprague-Dawley rats [5]) was 117.1 mmHg and 90.9 mmHg and 91.3 mmHg and 85.2 mmHg and 100.7 mmHg and 90.8 mmHg. The “time to emergence (restoration of righting) after a single dose of propofol” value (rats [6]) was 433 ± 24 s, the Ki [7] was 150 nM and the “Change in mean RR” value (Male Sprague-Dawley rats [8]; [10]) was “+4.4 breaths per minute and +2.2 breaths per minute and +3.6 breaths per minute and +4.9 breaths per minute”. The “Change in mean RR” value (Male Sprague-Dawley rats [8]; [11]) was “+29.2 breaths per minute and +9.8 breaths per minute and +50.36 breaths per minute and +18.9 breaths per minute”, the “RR after 5 mg/kg IV Methylphenidate (mean)” value (Male Sprague-Dawley rats [8]; [10]) was 86.3 breaths per minute and 78.0 breaths per minute and 84.1 breaths per minute and 75.5 breaths per minute and the “RR after 5 mg/kg IV Methylphenidate (mean)” value (Male Sprague-Dawley rats [8]; [11]) was 154 breaths per minute and 112.6 breaths per minute and 94.2 breaths per minute and 153.8 breaths per minute and 116.7 breaths per minute. For the same compound, the “changes in tidal volume” value (Male Sprague-Dawley rats [8]; methylphenidate 5 mg/kg IV after droperidol 0.5 mg/kg IV, four rats, one increase, three decreases) was 4-17%, the “changes in tidal volume” value (Male Sprague-Dawley rats [8]; methylphenidate 5 mg/kg IV after normal saline, isoflurane 1.5%) was “the changes were small and inconsistent” and the “changes in tidal volume” value (Male Sprague-Dawley rats [8]; methylphenidate 5 mg/kg IV after normal saline, isoflurane 1.5%, listed as Methylphenidate) was “tidal volume remained essentially unchanged”.
